Measurements published in US20240270762A1, “PENICILLIN-BINDING PROTEIN INHIBITORS” (priority 2021, published 2024).
Converted amounts (≈) assume the structure as drawn. Like-named read-outs stand apart in the source and are kept apart here.

Columns and labels:
A. baumannii CDC-0045 = experiment: microbe, parasite or virus in culture; format: cell-based; conditions: Acinetobacter baumannii
A. baumannii PBP2 = A. baumannii PBP2 (Acinetobacter baumannii, UniProt D0C8Z9); experiment: Bocillin-FL competition binding via gel filtration, A. baumannii PBP2
Sequence of A. baumannii PBP2 (D0C8Z9 whole entry): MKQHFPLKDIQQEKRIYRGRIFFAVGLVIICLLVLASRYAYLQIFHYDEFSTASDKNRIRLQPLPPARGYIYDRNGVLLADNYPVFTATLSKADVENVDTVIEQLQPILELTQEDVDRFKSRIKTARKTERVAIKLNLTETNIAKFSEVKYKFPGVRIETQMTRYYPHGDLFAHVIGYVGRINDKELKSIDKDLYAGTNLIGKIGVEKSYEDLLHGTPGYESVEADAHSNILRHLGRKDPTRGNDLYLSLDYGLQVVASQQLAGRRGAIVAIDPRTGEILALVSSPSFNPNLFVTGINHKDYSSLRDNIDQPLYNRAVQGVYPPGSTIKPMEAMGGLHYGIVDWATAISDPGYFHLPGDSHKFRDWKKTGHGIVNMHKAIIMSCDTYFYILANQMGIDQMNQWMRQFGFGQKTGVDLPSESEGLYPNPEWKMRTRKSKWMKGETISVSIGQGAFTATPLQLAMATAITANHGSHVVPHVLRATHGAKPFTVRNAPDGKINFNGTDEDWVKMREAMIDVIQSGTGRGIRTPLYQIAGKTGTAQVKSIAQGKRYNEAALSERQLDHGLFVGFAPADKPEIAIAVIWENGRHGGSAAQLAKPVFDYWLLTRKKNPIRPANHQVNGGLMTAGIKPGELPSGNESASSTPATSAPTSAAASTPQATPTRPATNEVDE
In short: (§1)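 Competitive equilibrium binding; reporter Bocillin-FL. PBP + inhibitor (titration) pre-incubated → Bocillin-FL, 15 min → gel filtration → fluorescence. EC50 from Hill fit of fraction bound vs [inhibitor].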

[1] = test system: B. thailandensis ATCC 700388; experiment: microbe, parasite or virus in culture; format: cell-based; conditions: Burkholderia thailandensis, ATCC700388, read-out: Minimum inhibitory concentration (MIC), B. thailandensis ATCC 700388
[2] = test system: P. aeruginosa (ΔmexAB-oprM); experiment: Broth microdilution MIC in iron-depleted CAMHB (IDM); format: cell-based; conditions: Pseudomonas aeruginosa; iron-depleted CAMHB (IDM); […]; read-out: Minimum inhibitory concentration, P. aeruginosa ΔmexAB-oprM
[3] = test system: B. humptydooensis ATCC BAA-2767; experiment: microbe, parasite or virus in culture; format: cell-based; conditions: Burkholderia humptydooensis, ATCCBAA2767, read-out: Minimum inhibitory concentration (MIC), B. humptydooensis ATCC BAA-2767
P. aeruginosa ATCC 27853 = experiment: microbe, parasite or virus in culture; format: cell-based; conditions: Pseudomonas aeruginosa, ATCC27853, read-out: Minimum inhibitory concentration, P. aeruginosa ATCC 27853
A. baumannii CDC-0033 = experiment: microbe, parasite or virus in culture; format: cell-based; conditions: Acinetobacter baumannii
P. aeruginosa CDC-0110 = experiment: microbe, parasite or virus in culture; format: cell-based; conditions: Pseudomonas aeruginosa, CDC0110, read-out: Minimum inhibitory concentration, P. aeruginosa CDC-0110
A. baumannii CDC-0036 = experiment: microbe, parasite or virus in culture; format: cell-based; conditions: Acinetobacter baumannii
P. aeruginosa ATCC 35151 = experiment: microbe, parasite or virus in culture; format: cell-based; conditions: Pseudomonas aeruginosa, ATCC35151, read-out: Minimum inhibitory concentration, P. aeruginosa ATCC 35151
A. baumannii PBP1a = target: T1, A. baumannii PBP1a (Acinetobacter baumannii, UniProt A0ABX6CK30); experiment: Bocillin-FL competition binding via gel filtration, A. baumannii PBP1a; conditions: competition binding assay using Bocillin-FL via gel filtration; read-out: A. baumannii PBP1a Potency
T1 sequence (A0ABX6CK30 1-851): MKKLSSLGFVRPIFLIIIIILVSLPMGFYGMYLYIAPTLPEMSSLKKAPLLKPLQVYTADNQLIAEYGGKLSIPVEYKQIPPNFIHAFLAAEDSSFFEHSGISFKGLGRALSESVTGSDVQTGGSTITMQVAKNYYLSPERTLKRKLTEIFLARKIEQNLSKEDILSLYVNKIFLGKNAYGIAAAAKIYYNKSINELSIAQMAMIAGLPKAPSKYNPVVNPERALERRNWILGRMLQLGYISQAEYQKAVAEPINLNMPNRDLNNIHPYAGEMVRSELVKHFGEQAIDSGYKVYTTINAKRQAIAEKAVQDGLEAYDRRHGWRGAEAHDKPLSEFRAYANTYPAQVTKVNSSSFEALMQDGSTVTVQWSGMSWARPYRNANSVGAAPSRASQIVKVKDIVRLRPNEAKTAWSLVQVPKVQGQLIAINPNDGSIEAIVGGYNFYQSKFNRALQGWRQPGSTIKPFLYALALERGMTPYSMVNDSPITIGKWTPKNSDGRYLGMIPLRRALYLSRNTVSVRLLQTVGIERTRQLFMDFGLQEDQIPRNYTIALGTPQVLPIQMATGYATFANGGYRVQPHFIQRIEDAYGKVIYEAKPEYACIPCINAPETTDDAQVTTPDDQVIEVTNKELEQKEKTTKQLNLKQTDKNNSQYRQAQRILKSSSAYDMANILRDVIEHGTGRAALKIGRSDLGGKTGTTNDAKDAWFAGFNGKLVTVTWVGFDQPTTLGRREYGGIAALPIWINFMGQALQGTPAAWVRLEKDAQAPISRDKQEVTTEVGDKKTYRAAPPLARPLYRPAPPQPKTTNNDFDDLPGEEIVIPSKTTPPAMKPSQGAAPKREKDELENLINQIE
In short: as §1

[4] = CDC0045, read-out: MIC, A. baumannii CDC-0045
[5] = CDC0033, read-out: MIC, A. baumannii CDC-0033
[6] = CDC0036, read-out: MIC, A. baumannii CDC-0036
[7] = CDC0045, read-out: Minimum inhibitory concentration (MIC), A. baumannii CDC-0045
[8] = CDC0033, read-out: Minimum inhibitory concentration (MIC), A. baumannii CDC-0033
[9] = CDC0036, read-out: Minimum inhibitory concentration (MIC), A. baumannii CDC-0036

SMILES	MIC (A. baumannii CDC-0045; [4]) [mg/L]	EC50 (A. baumannii PBP2) [µM]	MIC [1] [mg/L]	MIC [2] [mg/L]	MIC [3] [mg/L]	MIC (P. aeruginosa ATCC 27853) [mg/L]	MIC (A. baumannii CDC-0033; [5]) [mg/L]	MIC (P. aeruginosa CDC-0110) [mg/L]	MIC (A. baumannii CDC-0036; [6]) [mg/L]	MIC (P. aeruginosa ATCC 35151) [mg/L]	EC50 (A. baumannii PBP1a) [µM]	MIC (A. baumannii CDC-0045; [7]) [mg/L]	MIC (A. baumannii CDC-0033; [8]) [mg/L]	MIC (A. baumannii CDC-0036; [9]) [mg/L]
O=C(NCCCS(=O)(=O)N1CCN(C(=O)N[C@H](C(=O)N[C@H]2Cc3ccc(F)c(C(=O)O)c3OB2O)c2ccc(P(=O)(O)O)cc2)C1=O)c1ccc(O)c(O)c1Cl (single isomer, unassigned) [Example 169]	> 128	50 to 250	> 128	> 128	> 128	> 128	> 128	> 128	> 128	> 128	–	–	–	–
O=C(O)c1c(F)ccc2c1OB(O)[C@@H](NC(=O)[C@@H](NC(=O)N1CCN(C3CCN(C(=O)c4ccc(O)cc4)CC3)C1=O)c1cc(F)c(O)c(O)c1Cl)C2 (single isomer, unassigned) [Example 462]	32 to 64 (≈ 42.2 to 84.4 µM)	–	> 128	2 to 4 (≈ 2.64 to 5.28 µM)	> 128	2 to 4 (≈ 2.64 to 5.28 µM)	32 to 64 (≈ 42.2 to 84.4 µM)	8 to 16 (≈ 10.6 to 21.1 µM)	32 to 64 (≈ 42.2 to 84.4 µM)	< 1	< 10	–	–	–
O=C(O)c1c(F)ccc2c1OB(O)[C@@H](NC(=O)[C@H](NC(=O)N1CCN(C3CCN(C(=O)c4cc(F)c(O)c(O)c4Cl)CC3)C1=O)c1ccc(P(=O)(O)O)cc1)C2 (single isomer, unassigned) [Example 495]	–	< 10	< 1	< 1	< 1	< 1	–	–	–	< 1	< 10	< 1	< 1	< 1
O=C(O)c1c(F)ccc2c1OB(O)[C@@H](NC(=O)[C@H](NC(=O)N1CCN(C3CCN(C(=O)Nc4ccc(O)c(O)c4Cl)CC3)C1=O)c1ccc(P(=O)(O)O)cc1)C2 (single isomer, unassigned) [Example 497]	–	< 10	< 1	< 1	< 1	2 to 4 (≈ 2.44 to 4.88 µM)	–	–	–	< 1	< 10	< 1	< 1	< 1
O=C(O)c1c(F)ccc2c1OB(O)[C@@H](NC(=O)[C@H](NC(=O)N1CCN(C3CCN(C(=O)Nc4cc(F)c(O)c(O)c4Cl)CC3)C1=O)c1ccc(P(=O)(O)O)cc1)C2 (single isomer, unassigned) [Example 500]	–	< 10	< 1	< 1	< 1	< 1	–	–	–	< 1	< 10	< 1	< 1	< 1
O=C(O)c1c(F)ccc2c1OB(O)[C@@H](NC(=O)C(NC(=O)N1CCN(C3CCN(C(=O)Nc4c(F)ccc(O)c4F)CC3)C(=O)C1=O)c1cc(F)c(O)c(O)c1Cl)C2 (stereo partly drawn) [Example 487, (3R)-3-(2-(2-chloro-5-fluoro-3,4-dihydroxyphenyl)-2-(4-(1-((2,6-difluoro-3-hydroxyphenyl)carbamoyl)piperidin-4-yl)-2,3-dioxopiperazine-1-carboxamido)acetamido)-7-fluoro-2-hydroxy-3,4-dihydro-2H-benzo[e][1,2]oxaborinine-8-carboxylic acid]	–	< 10	< 1	< 1	2 to 4 (≈ 2.39 to 4.78 µM)	< 1	–	–	–	< 1	10 to 50	< 1	2 to 4 (≈ 2.39 to 4.78 µM)	< 1
O=C(O)c1c(F)ccc2c1OB(O)[C@@H](NC(=O)C(NC(=O)N1CCN(C3CCN(C(=O)Nc4cc(O)c(F)c(F)c4)CC3)C(=O)C1=O)c1cc(F)c(O)c(O)c1Cl)C2 (stereo partly drawn) [Example 488, (3R)-3-(2-(2-chloro-5-fluoro-3,4-dihydroxyphenyl)-2-(4-(1-((3,4-difluoro-5-hydroxyphenyl)carbamoyl)piperidin-4-yl)-2,3-dioxopiperazine-1-carboxamido)acetamido)-7-fluoro-2-hydroxy-3,4-dihydro-2H-benzo[e][1,2]oxaborinine-8-carboxylic acid]	–	10 to 50	8 to 16 (≈ 9.56 to 19.1 µM)	< 1	> 128	2 to 4 (≈ 2.39 to 4.78 µM)	–	–	–	< 1	< 10	< 1	2 to 4 (≈ 2.39 to 4.78 µM)	2 to 4 (≈ 2.39 to 4.78 µM)
O=C(O)c1c(F)ccc2c1OB(O)[C@@H](NC(=O)C(NC(=O)N1CCN(C3CCN(C(=O)Nc4ccc(Cl)c(O)c4F)CC3)C(=O)C1=O)c1cc(F)c(O)c(O)c1Cl)C2 (stereo partly drawn) [Example 489, (3R)-3-(2-(4-(1-((4-chloro-2-fluoro-3-hydroxyphenyl)carbamoyl)piperidin-4-yl)-2,3-dioxopiperazine-1-carboxamido)-2-(2-chloro-5-fluoro-3,4-dihydroxyphenyl)acetamido)-7-fluoro-2-hydroxy-3,4-dihydro-2H-benzo[e][1,2]oxaborinine-8-carboxylic acid]	–	< 10	2 to 4 (≈ 2.34 to 4.69 µM)	< 1	32 to 64 (≈ 37.5 to 75 µM)	2 to 4 (≈ 2.34 to 4.69 µM)	–	–	–	< 1	< 10	< 1	2 to 4 (≈ 2.34 to 4.69 µM)	2 to 4 (≈ 2.34 to 4.69 µM)
O=C(O)c1c(F)ccc2c1OB(O)[C@@H](NC(=O)C(NC(=O)N1CCN(C3CCN(C(=O)Nc4cc(O)c(F)cc4Cl)CC3)C(=O)C1=O)c1cc(F)c(O)c(O)c1Cl)C2 (stereo partly drawn) [Example 490, (3R)-3-(2-(4-(1-((2-chloro-4-fluoro-5-hydroxyphenyl)carbamoyl)piperidin-4-yl)-2,3-dioxopiperazine-1-carboxamido)-2-(2-chloro-5-fluoro-3,4-dihydroxyphenyl)acetamido)-7-fluoro-2-hydroxy-3,4-dihydro-2H-benzo[e][1,2]oxaborinine-8-carboxylic acid]	–	10 to 50	32 to 64 (≈ 37.5 to 75 µM)	< 1	> 128	2 to 4 (≈ 2.34 to 4.69 µM)	–	–	–	< 1	< 10	< 1	2 to 4 (≈ 2.34 to 4.69 µM)	2 to 4 (≈ 2.34 to 4.69 µM)
O=C(O)c1c(F)ccc2c1OB(O)[C@@H](NC(=O)[C@H](NC(=O)N1CCN(S(=O)(=O)c3ccc(O)c(O)c3Cl)C1=O)c1ccc(P(=O)(O)O)cc1)C2 [Example 506, (R)-3-((R)-2-(3-((2-chloro-3,4-dihydroxyphenyl)sulfonyl)-2-oxoimidazolidine-1-carboxamido)-2-(4-phosphonophenyl)acetamido)-7-fluoro-2-hydroxy-3,4-dihydro-2H-benzo[e][1,2]oxaborinine-8-carboxylic acid]	–	–	< 1	< 1	< 1	< 1	–	–	–	< 1	–	< 1	< 1	< 1
O=C(O)c1cccc2c1OB(O)[C@@H](NC(=O)[C@H](NC(=O)N1CCN(S(=O)(=O)c3ccc(O)c(O)c3Cl)C1=O)c1ccc(P(=O)(O)O)cc1)C2 [Example 509, (R)-3-((R)-2-(3-((2-chloro-3,4-dihydroxyphenyl)sulfonyl)-2-oxoimidazolidine-1-carboxamido)-2-(4-phosphonophenyl)acetamido)-2-hydroxy-3,4-dihydro-2H-benzo[e][1,2]oxaborinine-8-carboxylic acid]	–	–	< 1	< 1	< 1	< 1	–	–	–	< 1	–	< 1	< 1	< 1
